Measured values from US20150374666A1, “AQUEOUS LIQUID COMPOSITION INCLUDING HIGH CONCENTRATION OF L-HISTIDINE” (AJINOMOTO CO., INC., priority 2013, published 2015).

Assay: solubility of histidine added to acidic aqueous solution, left standing at room temperature for 24 hr
Assay type: physicochemical
Protocol: (§1) Acidic substances (acetic acid, phosphoric acid, citric acid, malic acid, or tartaric acid) in the amounts indicated in Table 1 were added to and dissolved in water at 80 to 100° C. to prepare acidic aqueous solutions. Then, to the prepared acidic aqueous solutions was added histidine (HIS) in the amounts indicated in Table 1, and the mixtures were thoroughly stirred. The mixtures were left standing at room temperature for 24 hr, and the solubility of histidine was examined.
Acidic substances (citric acid, malic acid or tartaric acid) in the amounts indicated in Table 2 were added to and dissolved in water at 80 to 100° C. to prepare acidic aqueous solutions. Then, to the prepared acidic aqueous solutions was added histidine (HIS) in the amounts indicated in Table 2 to a concentration of not less than 45 wt %, and the mixtures were thoroughly stirred. The mixtures were left standing at room temperature for 24 hr, and the solubility of histidine was examined. In Table 2, “-” in the pH column means unmeasurable. In Table 2, the composition with *2 was prepared after preparation of the composition with *1, by reducing the amount of water by evaporation under reduced pressure.
Citric acid in the amount indicated in Tables 3 to 5 were added to and dissolved in water at 80 to 100° C. to prepare acidic aqueous solutions. Then, to the prepared acidic aqueous solutions was added histidine (HIS) in the amounts indicated in Tables 3 to 5, and the mixtures were thoroughly stirred. The mixtures were left standing at room temperature for 24 hr, and the solubility of histidine was examined. In Table 5, the composition with *2 was prepared after preparation of the composition with *1, by reducing the amount of water by evaporation under reduced pressure.
as §1, with “substances (citric acid or” for “substances (acetic acid, phosphoric acid, citric acid,”, “malic” for “malic acid, or tartaric”, “Table 6 and 7” for “Table 1”, “histidine” for “histidine (HIS)”, “Table 6 and 7 to a concentration of 20 wt % or 30 wt %,” for “Table 1,”

N[C@@H](Cc1c[nH]cn1)C(=O)O [HIS, histidine]
preparation of liquid composition having a histidine concentration of not less than 47.4 wt % (0.56 part by weight of citric acid or malic acid per 1 part by weight of histidine): could not be prepared
solubility (Table 1: citric acid 60 g, water 50 g, His 90 g, acidic substance/HIS 0.67 W/W, pH before His addition 0.40, HIS concentration 45.0 % (W/W) in liquid, room temperature 24 hr): ∘
solubility (Table 1: citric acid 65 g, water 50 g, His 100 g, acidic substance/HIS 0.65 W/W, pH before His addition 0.30, HIS concentration 46.5 % (W/W) in liquid, room temperature 24 hr): ∘
solubility (Table 1: citric acid 80 g, water 50 g, His 120 g, acidic substance/HIS 0.67 W/W, pH before His addition 0.10, HIS concentration 48.0 % (W/W) in liquid, room temperature 24 hr): ∘
solubility (Table 1: malic acid 60 g, water 50 g, His 90 g, acidic substance/HIS 0.67 W/W, pH before His addition 0.40, HIS concentration 45.0 % (W/W) in liquid, room temperature 24 hr): ∘
solubility (Table 1: tartaric acid 60 g, water 50 g, His 90 g, acidic substance/HIS 0.67 W/W, pH before His addition 0.20, HIS concentration 45.0 % (W/W) in liquid, room temperature 24 hr): ∘
solubility (Table 2 (*1): citric acid 60 g, water 50 g, His 90 g, acidic substance/HIS 0.67 W/W, pH before His addition 0.40, HIS concentration 45.0 % (W/W) in liquid, room temperature 24 hr): ∘
solubility (Table 2 (*2, water reduced by evaporation under reduced pressure from *1): citric acid 60 g, water 10 g, His 90 g, acidic substance/HIS 0.67 W/W, HIS concentration 56.3 % (W/W) in liquid): ∘
solubility (Table 2 (*2, water reduced by evaporation under reduced pressure from *1): citric acid 60 g, water 20 g, His 90 g, acidic substance/HIS 0.67 W/W, HIS concentration 52.9 % (W/W) in liquid): ∘
solubility (Table 2: citric acid 65 g, water 50 g, His 100 g, acidic substance/HIS 0.65 W/W, pH before His addition 0.30, HIS concentration 46.5 % (W/W) in liquid, room temperature 24 hr): ∘
solubility (Table 2: citric acid 80 g, water 50 g, His 120 g, acidic substance/HIS 0.67 W/W, pH before His addition 0.10, HIS concentration 48.0 % (W/W) in liquid, room temperature 24 hr): ∘
solubility (Table 2: citric acid 120 g, water 50 g, His 180 g, acidic substance/HIS 0.67 W/W, HIS concentration 51.4 % (W/W) in liquid, room temperature 24 hr): ∘
solubility (Table 2: malic acid 60 g, water 50 g, His 90 g, acidic substance/HIS 0.67 W/W, pH before His addition 0.40, HIS concentration 45.0 % (W/W) in liquid, room temperature 24 hr): ∘
solubility (Table 2: malic acid 70 g, water 50 g, His 100 g, acidic substance/HIS 0.70 W/W, HIS concentration 45.5 % (W/W) in liquid, room temperature 24 hr): ∘
solubility (Table 2: tartaric acid 60 g, water 50 g, His 90 g, acidic substance/HIS 0.67 W/W, pH before His addition 0.20, HIS concentration 45.0 % (W/W) in liquid, room temperature 24 hr): ∘
solubility (Table 2: tartaric acid 60 g, water 50 g, His 100 g, acidic substance/HIS 0.60 W/W, pH before His addition 0.20, HIS concentration 47.6 % (W/W) in liquid, room temperature 24 hr): ∘
solubility of histidine (Table 3: amount of histidine added to acidic aqueous solution (water 50 g, citric acid 60 g) reduced): fine
solubility (Table 3: citric acid 60 g, water 50 g, His 30 g, acidic substance/HIS 2.00 W/W, HIS concentration 21.4 % (W/W) in liquid, room temperature 24 hr): ◯
solubility (Table 3: citric acid 60 g, water 50 g, His 50 g, acidic substance/HIS 1.20 W/W, HIS concentration 31.3 % (W/W) in liquid, room temperature 24 hr): ◯
solubility (Table 3: citric acid 60 g, water 50 g, His 70 g, acidic substance/HIS 0.86 W/W, HIS concentration 38.9 % (W/W) in liquid, room temperature 24 hr): ◯
solubility (Table 3: citric acid 60 g, water 50 g, His 90 g, acidic substance/HIS 0.67 W/W, HIS concentration 45.0 % (W/W) in liquid, room temperature 24 hr): ◯
solubility (Table 4: citric acid 20.0 g, water 50 g, His 30 g, acidic substance/HIS 0.67 W/W, HIS concentration 30.0 % (W/W) in liquid, room temperature 24 hr): ◯
solubility (Table 4: citric acid 33.3 g, water 50 g, His 50 g, acidic substance/HIS 0.67 W/W, HIS concentration 37.5 % (W/W) in liquid, room temperature 24 hr): ◯
solubility (Table 4: citric acid 46.7 g, water 50 g, His 70 g, acidic substance/HIS 0.67 W/W, HIS concentration 42.0 % (W/W) in liquid, room temperature 24 hr): ◯
solubility (Table 4: citric acid 60 g, water 50 g, His 90 g, acidic substance/HIS 0.67 W/W, HIS concentration 45.0 % (W/W) in liquid, room temperature 24 hr): ◯
solubility of histidine (Table 4: histidine and acidic substance reduced at constant ratio, acidic substance/HIS=0.67 (w/w)): fine
solubility (Table 5 (*1): citric acid 60 g, water 27.8 g, His 50 g, acidic substance/HIS 1.20 W/W, HIS concentration 36.3 % (W/W) in liquid, HIS content 180 % (W/W) to water, room temperature 24 hr): ◯
solubility (Table 5 (*2): citric acid 60 g, water 16.7 g, His 30 g, acidic substance/HIS 2.00 W/W, HIS concentration 28.1 % (W/W) in liquid, HIS content 180 % (W/W) to water): ◯
solubility (Table 5: citric acid 60 g, water 38.9 g, His 70 g, acidic substance/HIS 0.86 W/W, HIS concentration 41.4 % (W/W) in liquid, HIS content 180 % (W/W) to water, room temperature 24 hr): ◯
solubility (Table 5: citric acid 60 g, water 50 g, His 90 g, acidic substance/HIS 0.67 W/W, HIS concentration 45.0 % (W/W) in liquid, HIS content 180 % (W/W) to water, room temperature 24 hr): ◯
solubility of histidine (Table 5: histidine and water reduced at constant ratio, histidine content to water=180% (w/w)): fine
solubility (Table 6: citric acid 2.7 g, water 37.3 g, His 10 g, acidic substance/HIS 0.27 W/W, HIS concentration 20.0 % (W/W) in liquid, room temperature 24 hr): ∘
solubility (Table 6: citric acid 3.7 g, water 36.3 g, His 10 g, acidic substance/HIS 0.37 W/W, HIS concentration 20.0 % (W/W) in liquid, room temperature 24 hr): ∘
solubility (Table 6: citric acid 4.7 g, water 35.3 g, His 10 g, acidic substance/HIS 0.47 W/W, HIS concentration 20.0 % (W/W) in liquid, room temperature 24 hr): ∘
solubility (Table 6: citric acid 5.7 g, water 34.3 g, His 10 g, acidic substance/HIS 0.57 W/W, HIS concentration 20.0 % (W/W) in liquid, room temperature 24 hr): ∘
solubility (Table 6: citric acid 6.7 g, water 33.3 g, His 10 g, acidic substance/HIS 0.67 W/W, HIS concentration 20.0 % (W/W) in liquid, room temperature 24 hr): ∘
solubility (Table 6: malic acid 2.7 g, water 37.3 g, His 10 g, acidic substance/HIS 0.27 W/W, HIS concentration 20.0 % (W/W) in liquid, room temperature 24 hr): ∘
solubility (Table 7: citric acid 6.0 g, water 29.0 g, His 15 g, acidic substance/HIS 0.40 W/W, HIS concentration 30.0 % (W/W) in liquid, room temperature 24 hr): ∘
solubility (Table 7: citric acid 7.0 g, water 28.0 g, His 15 g, acidic substance/HIS 0.47 W/W, HIS concentration 30.0 % (W/W) in liquid, room temperature 24 hr): ∘
solubility (Table 7: citric acid 8.0 g, water 27.0 g, His 15 g, acidic substance/HIS 0.53 W/W, HIS concentration 30.0 % (W/W) in liquid, room temperature 24 hr): ∘
solubility (Table 7: citric acid 9.0 g, water 26.0 g, His 15 g, acidic substance/HIS 0.60 W/W, HIS concentration 30.0 % (W/W) in liquid, room temperature 24 hr): ∘
solubility (Table 7: citric acid 10.0 g, water 25.0 g, His 15 g, acidic substance/HIS 0.67 W/W, HIS concentration 30.0 % (W/W) in liquid, room temperature 24 hr): ∘
solubility (Table 7: malic acid 6.0 g, water 29.0 g, His 15 g, acidic substance/HIS 0.40 W/W, HIS concentration 30.0 % (W/W) in liquid, room temperature 24 hr): ∘
solubility of histidine (acetic acid or phosphoric acid as acidic substance, acidic aqueous solution pH of not more than 1.0, room temperature 24 hr): not dissolved or, even when dissolved, precipitated
solubility of histidine (citric acid, malic acid or tartaric acid as acidic substance, pH of not more than 1.0, amount corresponding to concentration of not less than 45 wt %): finely dissolved
solubility of histidine (histidine 20 wt %, 0.17 part by weight of acidic substance per 1 part by weight of histidine): not dissolved
solubility of histidine (histidine 20 wt %, not less than 0.27 part by weight of acidic substance per 1 part by weight of histidine): fine
solubility of histidine (histidine 30 wt %, 0.33 part by weight of acidic substance per 1 part by weight of histidine): not dissolved
solubility of histidine (histidine 30 wt %, not less than 0.40 part by weight of acidic substance per 1 part by weight of histidine): fine
histidine concentration of liquid composition that could be prepared (not less than 0.65 part by weight of citric acid, not less than 0.67 of malic acid, or not less than 0.60 of tartaric acid per 1 part by weight of histidine): not less than 45 wt %
